Where “and” joins values, the source holds several entries; their conditions need not be identical. Identical values can stand only once.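 Grown in 96-well plates, cells were treated for 48 hours with each compound at five concentrations. Insufficient inhibition: endpoint recorded as highest concentration tested. At the GI50, growth is halved. TGI: total growth inhibition.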
What was measured:
Assay in all cases: DTP human tumour cell line panel, 48 h
A549 NSCLC = tested on: A549 NSCLC
ACHN renal = tested on: ACHN renal
M19-MEL melanoma = tested on: M19-MEL melanoma
HT29 colon = tested on: HT29 colon
K-562 leukemia = tested on: K-562 leukemia
DMS 114 small cell lung = tested on: DMS 114 small cell lung
MDA-N = tested on: MDA-N
DLD-1 colon = tested on: DLD-1 colon
CCRF-CEM leukemia = tested on: CCRF-CEM leukemia
T-47D breast = tested on: T-47D breast
HOP-92 NSCLC = tested on: HOP-92 NSCLC
HCT-116 colon = tested on: HCT-116 colon
LOX IMVI melanoma = tested on: LOX IMVI melanoma
DMS 273 small cell lung = tested on: DMS 273 small cell lung
HOP-18 NSCLC = tested on: HOP-18 NSCLC
UO-31 renal = tested on: UO-31 renal
SK-OV-3 ovarian = tested on: SK-OV-3 ovarian
DU-145 prostate = tested on: DU-145 prostate
UACC-257 melanoma = tested on: UACC-257 melanoma
SK-MEL-2 melanoma = tested on: SK-MEL-2 melanoma
HCT-15 colon = tested on: HCT-15 colon
BT-549 breast = tested on: BT-549 breast
MCF7 breast = tested on: MCF7 breast
OVCAR-5 ovarian = tested on: OVCAR-5 ovarian
NCI-H460 lung = tested on: NCI-H460 lung
LXFL 529 NSCLC = tested on: LXFL 529 NSCLC
A498 renal = tested on: A498 renal
M14 melanoma = tested on: M14 melanoma
KM12 colon = tested on: KM12 colon
UACC-62 melanoma = tested on: UACC-62 melanoma
PC-3 prostate = tested on: PC-3 prostate
KM20L2 colon = tested on: KM20L2 colon
NCI-H226 lung = tested on: NCI-H226 lung
SNB-78 CNS = tested on: SNB-78 CNS
RPMI-8226 leukemia = tested on: RPMI-8226 leukemia
HL-60(TB) leukemia = tested on: HL-60(TB) leukemia
HCC-2998 colon = tested on: HCC-2998 colon
NCI-H23 lung = tested on: NCI-H23 lung
SW-620 colon = tested on: SW-620 colon
SF-268 CNS = tested on: SF-268 CNS
SF-295 CNS = tested on: SF-295 CNS
COLO 205 colon = tested on: COLO 205 colon
786-0 renal = tested on: 786-0 renal
SK-MEL-5 melanoma = tested on: SK-MEL-5 melanoma
CAKI-1 renal = tested on: CAKI-1 renal
U251 CNS = tested on: U251 CNS
OVCAR-4 ovarian = tested on: OVCAR-4 ovarian
NCI-H522 lung = tested on: NCI-H522 lung
SR leukemia = tested on: SR leukemia
EKVX NSCLC = tested on: EKVX NSCLC
SN12C renal = tested on: SN12C renal
RXF 393 renal = tested on: RXF 393 renal
SK-MEL-28 melanoma = tested on: SK-MEL-28 melanoma
TK-10 renal = tested on: TK-10 renal
MOLT-4 leukemia = tested on: MOLT-4 leukemia
HOP-62 NSCLC = tested on: HOP-62 NSCLC
OVCAR-8 ovarian = tested on: OVCAR-8 ovarian
SNB-75 CNS = tested on: SNB-75 CNS
XF 498 CNS = tested on: XF 498 CNS
SNB-19 CNS = tested on: SNB-19 CNS
IGROV1 ovarian = tested on: IGROV1 ovarian
MALME-3M melanoma = tested on: MALME-3M melanoma
SF-539 CNS = tested on: SF-539 CNS
OVCAR-3 ovarian = tested on: OVCAR-3 ovarian

SMILES: CC[C@@]1(O)C[C@H](OC2CC(N(C)C)C(OC3CC(O)C(OC4CCC(=O)C(C)O4)C(C)O3)C(C)O2)c2c(cc3c(c2O)C(=O)c2c(O)ccc(O)c2C3=O)[C@H]1C(=O)OC (some centres not stated)
- GI50 (A549 NSCLC): 0.449 nM
- TGI (ACHN renal): 16.4 nM and 25.8 nM and 22.5 nM
- GI50 (M19-MEL melanoma): 0.0125 nM
- TGI (M19-MEL melanoma): 12.1 nM and 12.9 nM and 33.6 nM
- TGI (HT29 colon): 16.2 nM [middle of 4 runs]
- TGI (K-562 leukemia): 119 nM
- GI50 (DMS 114 small cell lung): 0.291 nM
- TGI (DMS 114 small cell lung): 22 nM and 30.6 nM and 34.7 nM
- TGI (MDA-N): 2.59 nM
- TGI (DLD-1 colon): 73.7 nM
- TGI (CCRF-CEM leukemia): 12 nM and 47.8 nM
- TGI (T-47D breast): 5.69 nM and 12.1 nM
- TGI (HOP-92 NSCLC): 35.3 nM and 71.3 nM and 92 nM
- GI50 (HCT-116 colon): 0.054 nM
- TGI (HCT-116 colon): < 0.1 nM
- TGI (LOX IMVI melanoma): 0.668 nM
- TGI (DMS 273 small cell lung): 14 nM and 19.8 nM
- GI50 (HOP-18 NSCLC): 11700 nM
- TGI (HOP-18 NSCLC): 24100 nM
- TGI (UO-31 renal): 0.508 nM and < 0.1 nM
- GI50 (SK-OV-3 ovarian): 22.1 nM
- TGI (DU-145 prostate): 38 nM
- GI50 (UACC-257 melanoma): < 0.1 nM
- TGI (SK-MEL-2 melanoma): 16.6 nM and 19.8 nM and 24.3 nM
- TGI (HCT-15 colon): 5.81 nM and 29.8 nM
- TGI (BT-549 breast): 9.27 nM and 2.76 nM
- TGI (MCF7 breast): 101 nM
- TGI (OVCAR-5 ovarian): 22.1 nM and 65 nM
- GI50 (NCI-H460 lung): 0.0541 nM
- TGI (NCI-H460 lung): 0.343 nM and < 0.1 nM
- GI50 (LXFL 529 NSCLC): 0.0112 nM
- TGI (A498 renal): 14.2 nM and 24.5 nM
- TGI (M14 melanoma): 18.5 nM and 37.4 nM and 152 nM
- TGI (KM12 colon): 31.4 nM and 12.6 nM and 113 nM
- TGI (UACC-62 melanoma): 12 nM and 11.8 nM and 20.5 nM
- TGI (PC-3 prostate): 6.2 nM
- GI50 (KM20L2 colon): 0.0667 nM
- TGI (KM20L2 colon): 78.1 nM and 41 nM and 200 nM
- TGI (NCI-H226 lung): 6.41 nM and 27.5 nM
- GI50 (SNB-78 CNS): 3.11 nM

SMILES: CN1CCC(C(=O)NNc2ccccc2)CC1
- TGI (RPMI-8226 leukemia): > 100000 nM
- TGI (HL-60(TB) leukemia): > 100000 nM
- TGI (HCC-2998 colon): 12600 nM
- TGI (A549 NSCLC): > 86800 nM
- TGI (ACHN renal): > 68900 nM
- TGI (M19-MEL melanoma): > 79700 nM
- TGI (HT29 colon): > 100000 nM
- TGI (NCI-H23 lung): > 100000 nM
- TGI (SW-620 colon): > 63300 nM
- TGI (DMS 114 small cell lung): > 87200 nM
- TGI (SF-268 CNS): > 100000 nM
- TGI (DLD-1 colon): > 100000 nM
- TGI (SF-295 CNS): 33000 nM
- TGI (CCRF-CEM leukemia): > 100000 nM
- TGI (COLO 205 colon): 10200 nM
- TGI (786-0 renal): > 100000 nM
- TGI (SK-MEL-5 melanoma): 45600 nM
- TGI (CAKI-1 renal): > 100000 nM
- TGI (HOP-92 NSCLC): > 100000 nM
- TGI (HCT-116 colon): > 100000 nM
- TGI (U251 CNS): > 100000 nM
- TGI (OVCAR-4 ovarian): > 100000 nM
- TGI (NCI-H522 lung): > 100000 nM
- TGI (SR leukemia): > 100000 nM
- TGI (EKVX NSCLC): > 100000 nM
- TGI (LOX IMVI melanoma): 11300 nM
- TGI (DMS 273 small cell lung): > 31300 nM
- TGI (HOP-18 NSCLC): > 100000 nM
- TGI (SN12C renal): > 100000 nM
- TGI (UO-31 renal): 24400 nM
- TGI (RXF 393 renal): > 100000 nM
- TGI (SK-OV-3 ovarian): > 100000 nM
- TGI (UACC-257 melanoma): > 89200 nM
- TGI (SK-MEL-2 melanoma): > 46400 nM
- TGI (HCT-15 colon): > 51100 nM
- TGI (SK-MEL-28 melanoma): > 88100 nM
- TGI (TK-10 renal): > 89200 nM
- TGI (MOLT-4 leukemia): > 100000 nM
- TGI (HOP-62 NSCLC): > 86100 nM
- TGI (OVCAR-8 ovarian): > 100000 nM
- TGI (OVCAR-5 ovarian): > 41600 nM
- TGI (NCI-H460 lung): > 100000 nM
- TGI (SNB-75 CNS): > 100000 nM
- TGI (LXFL 529 NSCLC): 5690 nM
- TGI (A498 renal): > 100000 nM
- TGI (M14 melanoma): > 88400 nM
- TGI (KM12 colon): > 77800 nM
- TGI (XF 498 CNS): > 100000 nM
- TGI (SNB-19 CNS): > 100000 nM
- TGI (IGROV1 ovarian): > 100000 nM
- TGI (MALME-3M melanoma): 98500 nM
- TGI (UACC-62 melanoma): > 33700 nM
- TGI (KM20L2 colon): > 33600 nM
- TGI (NCI-H226 lung): > 100000 nM
- TGI (SF-539 CNS): 32600 nM
- TGI (SNB-78 CNS): > 100000 nM
- TGI (OVCAR-3 ovarian): > 100000 nM

Reference: PubChem BioAssay (NCI)
